# Experimental data published in PubChem BioAssay (NCI).
# Values joined by “and” are separate entries in the source; they are usually repeats but may differ in a detail not shown here. Equal entries are not always repeated.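 Dose response: 5 concentrations. Exposure: 48 h. Format: 96-well plates. Endpoint: linear interpolation; highest concentration if not reached. GI50 is the concentration that inhibits growth by half. TGI is the concentration that stops growth completely.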
# How the values were obtained:
# Experiment in all cases: inhibition of tumour cell growth, NCI panel, 48 h
# MDA-MB-231 breast = system: MDA-MB-231 breast
# IGROV1 ovarian = system: IGROV1 ovarian
# SW-620 colon = system: SW-620 colon
# HCT-15 colon = system: HCT-15 colon
# SK-MEL-28 melanoma = system: SK-MEL-28 melanoma
# EKVX NSCLC = system: EKVX NSCLC
# A498 renal = system: A498 renal
# SNB-19 CNS = system: SNB-19 CNS
# OVCAR-8 ovarian = system: OVCAR-8 ovarian
# NCI-H226 lung = system: NCI-H226 lung
SMILES,TGI (MDA-MB-231 breast),TGI (IGROV1 ovarian),TGI (SW-620 colon),TGI (HCT-15 colon),TGI (SK-MEL-28 melanoma),TGI (EKVX NSCLC),TGI (A498 renal),TGI (SNB-19 CNS),TGI (OVCAR-8 ovarian),TGI (NCI-H226 lung),GI50 (MDA-MB-231 breast),GI50 (IGROV1 ovarian),GI50 (SW-620 colon),GI50 (HCT-15 colon),GI50 (SK-MEL-28 melanoma),GI50 (EKVX NSCLC) [µM],GI50 (A498 renal),GI50 (SNB-19 CNS),GI50 (OVCAR-8 ovarian),GI50 (NCI-H226 lung)
O=C1/C(=C/c2ccc(Cl)cc2)CCC1CN1CCOCC1 (stereo not drawn),11.2 µM,10.5 µM,6.71 µM,11.6 µM,21.5 µM,30.7 µM,36 µM,30.8 µM,17.2 µM,42.3 µM,,,,,,,,,,
CN(C)c1ccc2cc3ccc(N(C)C)cc3nc2c1,2.89 µM,17.3 µM,,2.94 µM,16.3 µM,7.21 µM,9.01 µM,3.95 µM,5.62 µM,19.9 µM,,,,,,,,,,
Cc1ccc2nc3c(n2c1)C(=O)C(=O)c1ccccc1-3,3.07 µM,,0.411 µM,0.416 µM,0.343 µM,1.65 µM,2.71 µM,1.58 µM,0.655 µM,1.29 µM,0.505 µM,0.319 µM,0.198 µM,0.17 µM,0.189 µM,0.654,1.37 µM,0.565 µM,0.238 µM,0.371 µM
CNC(=O)c1cc(Oc2ccc3nc(N[C@@H]4CCCC[C@H]4O)sc3c2)ccn1,> 100 µM,> 100 µM,> 100 µM,> 100 µM,> 100 µM,> 100 µM,> 100 µM,> 100 µM,> 100 µM,> 100 µM,82.2 µM,> 77.2 µM,> 100 µM,38.1 µM,63.3 µM,38.2,> 40.5 µM,> 100 µM,69.4 µM,61.9 µM
Cc1ccc(-c2cc(-c3ccc(C)cc3)nc(N3CCN(CCNc4ccnc5cc(Cl)ccc45)CC3)n2)cc1,9.19 µM,12.3 µM,6.32 µM,24.5 µM,9.82 µM,20 µM,30.4 µM,15 µM,9.65 µM,18.1 µM,2.52 µM,3.08 µM,1.82 µM,3.42 µM,1.91 µM,5.65,9.69 µM,6.51 µM,2.17 µM,5.13 µM
O=c1c2c(=NCCN3CCCC3)cc3c(=O)n(CCCN4CCOCC4)c(=O)c4ccc(c(O)n1CCCN1CCOCC1)c2c4-3,0.919 µM,1.5 µM,1.07 µM,0.946 µM,1.74 µM,0.427 µM,0.981 µM,2.09 µM,> 32.8 µM,0.83 µM,0.197 µM,0.0479 µM,< 0.0192 µM,< 0.0201 µM,0.454 µM,0.153,0.173 µM,0.168 µM,0.1 µM,0.155 µM
O=C(Oc1ccccc1Cl)c1ccccc1Nc1cccc(C(F)(F)F)c1,48.3 µM,> 100 µM,54.4 µM,> 100 µM,> 100 µM,79.6 µM,54.8 µM,> 100 µM,> 100 µM,47.9 µM,20.2 µM,28 µM,8.07 µM,29.4 µM,38.5 µM,33.1,24.8 µM,73.2 µM,32 µM,20.2 µM
CN(C)c1ccc(Nc2c3ccccc3nc3cc(NC(=O)CCN4CCCC4)ccc23)cc1,2.92 µM,1.83 µM,1.68 µM,2.2 µM,2.85 µM,2.62 µM,1.98 µM,1.64 µM,2.96 µM,2.59 µM,1.23 µM,0.291 µM,0.252 µM,0.816 µM,1.46 µM,0.964,0.442 µM,0.305 µM,0.533 µM,0.577 µM
CCSc1ccc([C@@H]2[C@@H](N)C(=O)N2c2cc(OC)c(OC)c(OC)c2)cc1,> 100 µM,> 100 µM,> 100 µM,> 100 µM,> 100 µM,> 100 µM,8.29 µM,> 100 µM,> 100 µM,> 100 µM,0.376 µM,1.43 µM,0.0476 µM,0.0654 µM,3.79 µM,0.638,0.0563 µM,0.0715 µM,0.176 µM,79 µM
O=C1/C(=C/c2ccc(Cl)cc2)CN(C(=O)CCN2CCC(=NO)CC2)C/C1=C\c1ccc(Cl)cc1,1.89 µM,2.05 µM,0.467 µM,1.38 µM,2.96 µM,3.45 µM,2.41 µM,2.17 µM,2.62 µM,2.75 µM,0.637 µM,0.807 µM,0.179 µM,0.383 µM,1.57 µM,1.62,1.15 µM,0.817 µM,0.823 µM,1.35 µM
O=C(Nc1ccc(Oc2ccc(NC(=O)Nc3ccc([N+](=O)[O-])cc3)cc2)cc1)Nc1ccc([N+](=O)[O-])cc1,7.2 µM,4.71 µM,> 56.3 µM,13.7 µM,43.2 µM,> 30.9 µM,7.23 µM,> 100 µM,> 100 µM,27.8 µM,1.65 µM,1.9 µM,2.51 µM,1.91 µM,3.28 µM,2.32,1.97 µM,3.34 µM,3.17 µM,2.9 µM
Oc1ccc(Oc2cnc3cc(Cl)ccc3n2)cc1,> 100 µM,,> 100 µM,> 100 µM,> 100 µM,74.4 µM,> 100 µM,> 100 µM,> 100 µM,> 100 µM,24.5 µM,,38.2 µM,33.7 µM,76 µM,13.2,25.4 µM,91.6 µM,> 100 µM,55.4 µM
O=C(Cc1ccc(Nc2ccnc(C(F)(F)F)c2)cc1)Nc1cc(Cl)ccc1O,24.2 µM,30 µM,21.4 µM,61 µM,18.7 µM,16.9 µM,10.6 µM,38 µM,> 100 µM,32.3 µM,4.92 µM,6.34 µM,6.23 µM,5.66 µM,6.06 µM,3.12,3.03 µM,5.31 µM,20.5 µM,10.3 µM
CCOc1cc2c(=O)oc3c(OC)ccc4ccc(c1OC)c2c43,97.5 µM,> 100 µM,> 100 µM,> 100 µM,> 100 µM,> 100 µM,> 100 µM,> 100 µM,79.3 µM,> 100 µM,,,,,,,,,,
CCCCCCCCCCCCCCCC(=O)OCC1OC(OC)C(NC(=O)N(CCCl)N=O)C(O)C1O (stereo not drawn),35.5 µM,54 µM,28.5 µM,35.4 µM,> 85.4 µM,> 87.5 µM,61.3 µM,> 67.2 µM,45.3 µM,39.7 µM,,,,,,,,,,
CN(C)CC1CCCCCC(Br)C1=O (stereo not drawn),30.9 µM,> 69.4 µM,12.7 µM,25.4 µM,34 µM,30.8 µM,> 100 µM,> 100 µM,32.8 µM,> 53.9 µM,,,,,,,,,,
O=C(Nc1ccc(Nc2ccncc2)cc1)c1ccc(Nc2ccnc3ccc([N+](=O)[O-])cc23)cc1[N+](=O)[O-],> 61.8 µM,> 83.7 µM,> 55.5 µM,> 100 µM,> 46.1 µM,> 100 µM,> 62.2 µM,> 100 µM,45.2 µM,> 93.9 µM,24.6 µM,14.1 µM,26.8 µM,35.6 µM,5.26 µM,22.5,24.2 µM,5.61 µM,13 µM,37.5 µM
O=C(Cn1c(C(=O)c2ccc(Cl)cc2)nc(-c2ccccc2)c1-c1ccccc1)c1ccc(Cl)cc1,> 100 µM,> 100 µM,> 100 µM,> 100 µM,> 100 µM,> 100 µM,> 100 µM,> 100 µM,> 100 µM,> 100 µM,> 100 µM,> 100 µM,> 100 µM,> 100 µM,> 100 µM,> 100,> 100 µM,> 100 µM,> 100 µM,> 100 µM
O=C(Cc1csc2nc(-c3ccc(Br)cc3)cn12)N/N=C/c1ccc(Cl)cc1Cl,> 100 µM,45.6 µM,60.2 µM,73.2 µM,> 100 µM,> 100 µM,62.7 µM,> 100 µM,50.3 µM,92.2 µM,26.2 µM,16 µM,23 µM,25.5 µM,> 100 µM,31.6,29.3 µM,94.6 µM,18.6 µM,31.8 µM
O=C1/C(=C/c2ccc(Cl)c(Cl)c2)CNC/C1=C\c1ccc(Cl)c(Cl)c1,8.7 µM,18.8 µM,11.9 µM,7.95 µM,62.9 µM,13.6 µM,32.2 µM,32.6 µM,16 µM,39.9 µM,,,,,,,,,,
CC(C)C[CH2][Ge]([CH2]CC(C)C)([CH2]CC(C)C)[CH2]CC(C)C,> 100 µM,> 100 µM,> 100 µM,> 100 µM,> 100 µM,> 100 µM,> 100 µM,> 100 µM,> 100 µM,> 100 µM,> 100 µM,> 100 µM,> 100 µM,> 100 µM,> 100 µM,> 100,> 100 µM,> 100 µM,> 100 µM,> 100 µM
COc1ccc(/C=N\NC(=O)c2ccc3nc(-c4ccc(Cl)cc4)[nH]c3c2)cc1,5.45 µM,3.97 µM,5.58 µM,12.8 µM,3.37 µM,5.84 µM,9.87 µM,7.95 µM,11.5 µM,4.43 µM,2.42 µM,1.65 µM,2.41 µM,3.24 µM,1.79 µM,2.11,2.45 µM,3.13 µM,3.19 µM,1.79 µM
COC1C(CO)OC(n2c3c(Cl)cccc3c3c4c(c5c6cccc(Cl)c6[nH]c5c32)C(=O)NC4=O)C(O)C1O (stereo not drawn),> 54.7 µM,7.76 µM,> 100 µM,> 100 µM,> 73.5 µM,> 100 µM,0.688 µM,> 100 µM,16.6 µM,0.666 µM,,,,,,,,,,
c1ccc2cc(C[n+]3ccn(Cc4ccc5ccccc5n4)c3)ccc2c1,1.97 µM and 8.2 µM,3.19 µM and 9.03 µM,11.8 µM and 22.1 µM,27.7 µM and > 100 µM,1.35 µM and 13 µM,7.34 µM and 31.4 µM,3.9 µM and 24.1 µM,11 µM and 13.2 µM,10.5 µM and 15 µM,4.87 µM and 21.6 µM,0.432 µM and 2.22 µM,0.481 µM and 2.22 µM,0.734 µM and 6.27 µM,12.3 µM and 53.5 µM,0.325 µM and 2.78 µM,,0.492 µM and 2.49 µM,0.338 µM and 3.05 µM,0.754 µM and 3.72 µM,1.06 µM and 4.51 µM
COc1ccc2c(c1)[nH]c(=O)c1c3cc(OC)c(OC)cc3cn21,1.06 µM,0.233 µM,1.52 µM,1.19 µM,18.2 µM,18.9 µM,0.072 µM,22.3 µM,14.9 µM,24.4 µM,0.0219 µM,< 0.0178 µM,< 0.01 µM,< 0.01 µM,< 0.01 µM,0.0312,< 0.01 µM,0.016 µM,0.0193 µM,0.0701 µM
CC[C@H](C)[C@H](NC(=O)NC(C)(C)C)C(=O)N(C)[C@H](C[C@@H](OC(C)=O)c1nc(C(=O)N[C@@H](Cc2ccccc2)C[C@H](C)C(=O)OC)cs1)C(C)C,2.98 µM,> 25 µM,> 25 µM,6.95 µM,> 25 µM,> 25 µM,4.31 µM,> 25 µM,> 25 µM,> 25 µM,0.726 µM,0.556 µM,0.646 µM,0.686 µM,2.97 µM,1.24,0.154 µM,1.12 µM,0.936 µM,1.95 µM
CCCCCCCCNC(C)C(O)c1ccc(SC(C)C)cc1 (stereo not drawn),3.31 µM,3.38 µM,3.29 µM,3.29 µM,3.27 µM,2.98 µM,2.86 µM,3.28 µM,,3.85 µM,1.8 µM,1.81 µM,1.74 µM,1.7 µM,1.83 µM,1.44,1.5 µM,1.64 µM,,1.81 µM
